From the supplement of paper PMC13386468
pIC50: −log10 of the molar value.

How the values were obtained:
Test in all cases: IC50 for competition of protein binding to Kinobeads
Settings in all cases: assay detail: Kinobeads competition in P. falciparum blood-stage lysate
UniProt Q8IEH3 = target: UniProt Q8IEH3
UniProt Q8I2J4 = target: UniProt Q8I2J4
UniProt Q8IDH5 = target: UniProt Q8IDH5
UniProt Q8I719 = target: UniProt Q8I719
UniProt Q8I5X7 = target: UniProt Q8I5X7
UniProt Q8IDY6 = target: UniProt Q8IDY6
UniProt Q7KQL5 = target: UniProt Q7KQL5
Chain of UniProt Q7KQL5 (Q7KQL5 whole entry): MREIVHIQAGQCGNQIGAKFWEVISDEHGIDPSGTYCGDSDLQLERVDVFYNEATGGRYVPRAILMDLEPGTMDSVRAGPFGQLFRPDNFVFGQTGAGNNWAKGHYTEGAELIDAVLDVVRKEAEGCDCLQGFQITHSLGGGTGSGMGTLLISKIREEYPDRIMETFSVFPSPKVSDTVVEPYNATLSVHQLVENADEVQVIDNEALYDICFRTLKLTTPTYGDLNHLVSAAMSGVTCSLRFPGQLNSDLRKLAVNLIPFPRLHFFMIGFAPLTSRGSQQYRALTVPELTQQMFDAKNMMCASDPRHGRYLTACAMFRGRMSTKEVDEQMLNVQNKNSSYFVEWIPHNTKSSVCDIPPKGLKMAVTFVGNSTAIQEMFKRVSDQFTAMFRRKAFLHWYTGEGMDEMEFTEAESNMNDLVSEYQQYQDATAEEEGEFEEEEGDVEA

UniProt Q8IHT4 = target: UniProt Q8IHT4
UniProt O77376 = target: UniProt O77376
UniProt Q8I2G2 = target: UniProt Q8I2G2
UniProt Q8ILC1 = target: UniProt Q8ILC1
Chain of UniProt Q8ILC1 (Q8ILC1 whole entry): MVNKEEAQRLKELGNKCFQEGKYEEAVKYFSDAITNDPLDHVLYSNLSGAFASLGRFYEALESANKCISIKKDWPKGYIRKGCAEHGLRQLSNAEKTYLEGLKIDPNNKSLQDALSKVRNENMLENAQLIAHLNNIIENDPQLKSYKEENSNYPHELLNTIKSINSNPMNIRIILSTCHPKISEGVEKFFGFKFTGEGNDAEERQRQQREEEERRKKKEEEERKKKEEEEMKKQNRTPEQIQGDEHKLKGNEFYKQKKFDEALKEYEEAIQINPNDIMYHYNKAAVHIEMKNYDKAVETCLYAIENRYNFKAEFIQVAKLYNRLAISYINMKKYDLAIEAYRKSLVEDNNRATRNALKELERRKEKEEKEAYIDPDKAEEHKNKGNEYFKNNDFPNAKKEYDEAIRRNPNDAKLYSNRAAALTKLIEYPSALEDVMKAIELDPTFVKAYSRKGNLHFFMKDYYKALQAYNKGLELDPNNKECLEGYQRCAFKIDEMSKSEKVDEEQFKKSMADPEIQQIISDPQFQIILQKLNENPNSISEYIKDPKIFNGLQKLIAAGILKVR

UniProt Q8IE84 = target: UniProt Q8IE84
UniProt Q8IDJ4 = target: UniProt Q8IDJ4
UniProt Q76NM6 = target: UniProt Q76NM6
Chain of UniProt Q76NM6 (Q76NM6 whole entry): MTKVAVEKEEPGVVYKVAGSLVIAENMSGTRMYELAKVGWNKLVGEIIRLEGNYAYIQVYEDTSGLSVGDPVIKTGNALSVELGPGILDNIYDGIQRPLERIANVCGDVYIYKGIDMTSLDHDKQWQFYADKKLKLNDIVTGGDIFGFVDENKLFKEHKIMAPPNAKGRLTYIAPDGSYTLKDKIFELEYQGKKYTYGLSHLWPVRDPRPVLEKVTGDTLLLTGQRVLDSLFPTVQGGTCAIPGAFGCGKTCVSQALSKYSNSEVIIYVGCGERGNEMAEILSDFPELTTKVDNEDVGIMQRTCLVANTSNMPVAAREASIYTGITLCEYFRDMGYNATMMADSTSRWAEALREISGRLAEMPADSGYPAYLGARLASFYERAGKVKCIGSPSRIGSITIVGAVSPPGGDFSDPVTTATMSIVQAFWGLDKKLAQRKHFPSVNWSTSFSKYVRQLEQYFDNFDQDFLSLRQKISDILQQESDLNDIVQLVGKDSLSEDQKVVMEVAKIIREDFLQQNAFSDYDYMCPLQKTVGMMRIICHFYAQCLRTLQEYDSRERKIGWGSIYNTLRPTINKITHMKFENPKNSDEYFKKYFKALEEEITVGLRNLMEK

UniProt Q8IKL1 = target: UniProt Q8IKL1
UniProt Q8I4Z4 = target: UniProt Q8I4Z4
UniProt Q8IHR5 = target: UniProt Q8IHR5
UniProt Q8I1P3 = target: UniProt Q8I1P3
UniProt Q8IBP0 = target: UniProt Q8IBP0
UniProt O77344 = target: UniProt O77344
UniProt Q8IAW7 = target: UniProt Q8IAW7
UniProt Q8IID5 = target: UniProt Q8IID5
UniProt Q8IKN7 = target: UniProt Q8IKN7
UniProt Q8III5 = target: UniProt Q8III5
UniProt Q8IL71 = target: UniProt Q8IL71
UniProt O97313 = target: UniProt O97313
Chain of UniProt O97313 (O97313 whole entry): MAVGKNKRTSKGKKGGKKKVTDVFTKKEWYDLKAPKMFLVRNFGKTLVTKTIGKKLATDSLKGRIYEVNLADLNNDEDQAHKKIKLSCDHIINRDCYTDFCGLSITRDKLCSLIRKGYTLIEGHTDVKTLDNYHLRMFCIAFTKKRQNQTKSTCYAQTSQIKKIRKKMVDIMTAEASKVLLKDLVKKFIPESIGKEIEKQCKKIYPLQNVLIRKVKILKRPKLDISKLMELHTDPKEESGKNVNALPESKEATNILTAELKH

UniProt Q8IAU3 = target: UniProt Q8IAU3
UniProt A0A144A2H0 = target: UniProt A0A144A2H0
Chain of UniProt A0A144A2H0 (A0A144A2H0 whole entry): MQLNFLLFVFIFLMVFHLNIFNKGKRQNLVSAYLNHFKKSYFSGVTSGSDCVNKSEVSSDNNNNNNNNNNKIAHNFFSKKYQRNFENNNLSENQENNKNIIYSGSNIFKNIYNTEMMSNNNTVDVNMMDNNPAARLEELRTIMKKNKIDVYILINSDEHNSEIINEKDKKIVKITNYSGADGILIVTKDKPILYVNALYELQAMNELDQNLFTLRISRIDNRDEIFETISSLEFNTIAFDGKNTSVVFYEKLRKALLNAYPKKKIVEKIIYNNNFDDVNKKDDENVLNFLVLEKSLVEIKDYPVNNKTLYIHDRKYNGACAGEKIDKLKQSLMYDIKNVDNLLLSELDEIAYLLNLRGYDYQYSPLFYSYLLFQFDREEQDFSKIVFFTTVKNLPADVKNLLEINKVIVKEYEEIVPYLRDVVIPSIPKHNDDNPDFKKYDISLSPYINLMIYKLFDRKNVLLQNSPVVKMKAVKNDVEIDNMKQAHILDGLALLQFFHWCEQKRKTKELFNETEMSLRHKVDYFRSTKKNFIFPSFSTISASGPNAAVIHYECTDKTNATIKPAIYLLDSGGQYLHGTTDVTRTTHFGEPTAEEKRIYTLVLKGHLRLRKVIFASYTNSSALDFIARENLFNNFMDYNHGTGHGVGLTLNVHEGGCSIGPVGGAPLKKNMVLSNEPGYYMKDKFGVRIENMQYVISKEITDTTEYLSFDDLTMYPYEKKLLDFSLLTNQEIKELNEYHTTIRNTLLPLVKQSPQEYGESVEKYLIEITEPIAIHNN

UniProt Q8I259 = target: UniProt Q8I259
UniProt Q8III6 = target: UniProt Q8III6
UniProt Q8I5A6 = target: UniProt Q8I5A6
UniProt Q8IDG9 = target: UniProt Q8IDG9
UniProt Q8I323 = target: UniProt Q8I323
UniProt Q8IDI5 = target: UniProt Q8IDI5
UniProt Q8I291 = target: UniProt Q8I291
UniProt Q8ILG6 = target: UniProt Q8ILG6
UniProt Q8IL88 = target: UniProt Q8IL88
UniProt O77328 = target: UniProt O77328
UniProt Q8I298 = target: UniProt Q8I298
UniProt Q8IJR8 = target: UniProt Q8IJR8
UniProt Q8ID33 = target: UniProt Q8ID33
UniProt Q8I1Q5 = target: UniProt Q8I1Q5
UniProt Q8ILK2 = target: UniProt Q8ILK2
UniProt Q8I2Q0 = target: UniProt Q8I2Q0
UniProt Q9U0I0 = target: UniProt Q9U0I0
UniProt Q8ILL3 = target: UniProt Q8ILL3
UniProt Q8I442 = target: UniProt Q8I442
UniProt Q8IIG7 = target: UniProt Q8IIG7
Chain of UniProt Q8IIG7 (Q8IIG7 whole entry): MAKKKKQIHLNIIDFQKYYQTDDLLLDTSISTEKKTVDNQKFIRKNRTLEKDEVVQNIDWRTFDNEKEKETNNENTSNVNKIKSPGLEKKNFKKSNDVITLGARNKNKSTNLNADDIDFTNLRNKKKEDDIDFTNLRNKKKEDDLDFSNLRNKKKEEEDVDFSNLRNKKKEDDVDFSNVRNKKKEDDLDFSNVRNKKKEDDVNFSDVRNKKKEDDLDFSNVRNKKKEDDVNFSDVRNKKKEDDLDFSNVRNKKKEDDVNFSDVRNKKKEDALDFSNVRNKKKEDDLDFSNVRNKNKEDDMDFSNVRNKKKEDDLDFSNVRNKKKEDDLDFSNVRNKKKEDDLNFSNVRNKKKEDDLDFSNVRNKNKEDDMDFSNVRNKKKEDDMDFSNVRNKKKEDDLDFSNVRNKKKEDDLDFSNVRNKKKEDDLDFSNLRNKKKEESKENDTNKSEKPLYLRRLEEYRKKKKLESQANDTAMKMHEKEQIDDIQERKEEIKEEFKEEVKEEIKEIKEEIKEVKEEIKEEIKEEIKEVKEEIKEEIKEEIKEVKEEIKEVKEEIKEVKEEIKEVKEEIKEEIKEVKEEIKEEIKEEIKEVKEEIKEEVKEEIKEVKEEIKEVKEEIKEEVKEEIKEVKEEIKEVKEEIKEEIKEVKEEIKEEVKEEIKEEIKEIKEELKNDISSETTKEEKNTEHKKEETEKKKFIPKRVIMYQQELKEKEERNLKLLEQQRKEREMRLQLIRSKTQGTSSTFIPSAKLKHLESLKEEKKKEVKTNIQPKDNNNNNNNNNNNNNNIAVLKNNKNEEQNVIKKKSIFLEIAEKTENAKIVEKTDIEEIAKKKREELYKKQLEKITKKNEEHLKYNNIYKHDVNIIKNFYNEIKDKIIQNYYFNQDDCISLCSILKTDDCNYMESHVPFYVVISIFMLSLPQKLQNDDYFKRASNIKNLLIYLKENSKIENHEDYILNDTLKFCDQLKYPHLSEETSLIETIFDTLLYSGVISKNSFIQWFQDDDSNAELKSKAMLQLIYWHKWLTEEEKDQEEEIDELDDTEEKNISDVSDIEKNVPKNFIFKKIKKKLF

UniProt Q8IE43 = target: UniProt Q8IE43
UniProt Q8IM27 = target: UniProt Q8IM27
UniProt O96259 = target: UniProt O96259
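Also: native unpurified kinases from lysate captured on beads bearing immobilized kinase inhibitors, with bead-bound kinases quantified by mass spectrometry across compound doses.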

Chain of UniProt Q8I2J4 (Q8I2J4 whole entry): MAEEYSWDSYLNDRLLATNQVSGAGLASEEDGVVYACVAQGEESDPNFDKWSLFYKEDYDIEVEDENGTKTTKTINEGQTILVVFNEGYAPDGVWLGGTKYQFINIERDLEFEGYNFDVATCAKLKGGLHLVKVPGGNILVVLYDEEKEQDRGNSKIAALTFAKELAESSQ
Chain of UniProt Q8I719 (Q8I719 whole entry, looked up): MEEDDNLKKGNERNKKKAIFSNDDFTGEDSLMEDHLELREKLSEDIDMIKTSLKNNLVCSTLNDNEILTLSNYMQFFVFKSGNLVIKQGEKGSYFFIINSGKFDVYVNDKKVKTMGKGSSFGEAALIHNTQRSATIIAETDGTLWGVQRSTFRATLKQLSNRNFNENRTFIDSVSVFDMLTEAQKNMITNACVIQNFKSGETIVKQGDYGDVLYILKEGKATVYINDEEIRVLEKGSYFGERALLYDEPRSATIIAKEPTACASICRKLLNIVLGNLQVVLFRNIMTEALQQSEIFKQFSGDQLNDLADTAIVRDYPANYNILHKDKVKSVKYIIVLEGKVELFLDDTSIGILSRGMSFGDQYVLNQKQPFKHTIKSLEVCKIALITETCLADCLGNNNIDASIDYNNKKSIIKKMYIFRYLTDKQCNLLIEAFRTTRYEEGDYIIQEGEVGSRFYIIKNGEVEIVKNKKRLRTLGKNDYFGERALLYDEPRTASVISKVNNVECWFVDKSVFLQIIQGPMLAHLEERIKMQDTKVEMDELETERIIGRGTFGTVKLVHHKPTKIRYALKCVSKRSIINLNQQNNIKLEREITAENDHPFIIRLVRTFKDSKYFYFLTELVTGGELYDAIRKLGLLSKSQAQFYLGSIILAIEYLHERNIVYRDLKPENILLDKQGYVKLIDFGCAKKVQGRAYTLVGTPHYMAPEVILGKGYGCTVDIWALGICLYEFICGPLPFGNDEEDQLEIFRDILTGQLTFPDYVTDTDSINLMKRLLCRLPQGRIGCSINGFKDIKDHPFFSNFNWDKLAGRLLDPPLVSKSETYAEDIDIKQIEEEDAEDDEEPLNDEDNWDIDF

**Q.** O=c1[nH]c2ccc(Cl)cc2c(NC2CN3CCC2CC3)c1-c1nc2ccccc2[nH]1 (stereo unspecified) [CHIR-124] was tested. Which pIC50 (UniProt Q8IEH3) did it give?
**A.** Its pIC50 is less than 4.70.

**Q.** And the pIC50 (UniProt Q8I2J4)?
**A.** Its pIC50 is less than 4.70.

**Q.** And the pIC50 (UniProt Q8IDH5)?
**A.** The pIC50 was less than 4.70.

**Q.** What about the pIC50 (UniProt Q8I719) of the same molecule?
**A.** The pIC50 was less than 4.70.

**Q.** And the pIC50 (UniProt Q8I5X7)?
**A.** The pIC50 was less than 4.70.

**Q.** And the pIC50 (UniProt Q8IDY6)?
**A.** Its pIC50 is less than 4.70.

**Q.** And the pIC50 (UniProt Q7KQL5)?
**A.** The pIC50 was less than 4.70.

**Q.** What about the pIC50 (UniProt Q8IHT4) of the same molecule?
**A.** The pIC50 was less than 4.70.

**Q.** What about the pIC50 (UniProt O77376) of the same molecule?
**A.** Its pIC50 is less than 4.70.

**Q.** And the pIC50 (UniProt Q8I2G2)?
**A.** The pIC50 was less than 4.70.

**Q.** And the pIC50 (UniProt Q8ILC1)?
**A.** The pIC50 was less than 4.70.

**Q.** And the pIC50 (UniProt Q8IE84)?
**A.** The pIC50 was less than 4.70.

**Q.** And the pIC50 (UniProt Q8IDJ4)?
**A.** The pIC50 was less than 4.70.

**Q.** And the pIC50 (UniProt Q76NM6)?
**A.** Its pIC50 is less than 4.70.

**Q.** And the pIC50 (UniProt Q8IKL1)?
**A.** Its pIC50 is less than 4.70.

**Q.** What about the pIC50 (UniProt Q8I4Z4) of the same molecule?
**A.** Its pIC50 is less than 4.70.

**Q.** And the pIC50 (UniProt Q8IHR5)?
**A.** Its pIC50 is less than 4.70.

**Q.** What about the pIC50 (UniProt Q8I1P3) of the same molecule?
**A.** The pIC50 was less than 4.70.

**Q.** And the pIC50 (UniProt Q8IBP0)?
**A.** The pIC50 was less than 4.70.

**Q.** And the pIC50 (UniProt O77344)?
**A.** The pIC50 was 5.53.

**Q.** And the pIC50 (UniProt Q8IAW7)?
**A.** The pIC50 was less than 4.70.

**Q.** What about the pIC50 (UniProt Q8IID5) of the same molecule?
**A.** The pIC50 was less than 4.70.

**Q.** What about the pIC50 (UniProt Q8IKN7) of the same molecule?
**A.** The pIC50 was less than 4.70.

**Q.** And the pIC50 (UniProt Q8III5)?
**A.** Its pIC50 is less than 4.70.

**Q.** What about the pIC50 (UniProt Q8IL71) of the same molecule?
**A.** The pIC50 was less than 4.70.

**Q.** What about the pIC50 (UniProt O97313) of the same molecule?
**A.** Its pIC50 is less than 4.70.

**Q.** And the pIC50 (UniProt Q8IAU3)?
**A.** Its pIC50 is less than 4.70.

**Q.** What about the pIC50 (UniProt A0A144A2H0) of the same molecule?
**A.** The pIC50 was less than 4.70.

**Q.** What about the pIC50 (UniProt Q8I259) of the same molecule?
**A.** The pIC50 was less than 4.70.

**Q.** What about the pIC50 (UniProt Q8III6) of the same molecule?
**A.** Its pIC50 is less than 4.70.

**Q.** What about the pIC50 (UniProt Q8I5A6) of the same molecule?
**A.** Its pIC50 is less than 4.70.

**Q.** What about the pIC50 (UniProt Q8IDG9) of the same molecule?
**A.** The pIC50 was less than 4.70.

**Q.** What about the pIC50 (UniProt Q8I323) of the same molecule?
**A.** The pIC50 was less than 4.70.

**Q.** What about the pIC50 (UniProt Q8IDI5) of the same molecule?
**A.** The pIC50 was less than 4.70.

**Q.** What about the pIC50 (UniProt Q8I291) of the same molecule?
**A.** The pIC50 was less than 4.70.

**Q.** And the pIC50 (UniProt Q8ILG6)?
**A.** The pIC50 was less than 4.70.

**Q.** What about the pIC50 (UniProt Q8IL88) of the same molecule?
**A.** The pIC50 was less than 4.70.

**Q.** What about the pIC50 (UniProt O77328) of the same molecule?
**A.** The pIC50 was less than 4.70.

**Q.** What about the pIC50 (UniProt Q8I298) of the same molecule?
**A.** The pIC50 was less than 4.70.

**Q.** And the pIC50 (UniProt Q8IJR8)?
**A.** Its pIC50 is 6.19.

**Q.** And the pIC50 (UniProt Q8ID33)?
**A.** The pIC50 was less than 4.70.

**Q.** What about the pIC50 (UniProt Q8I1Q5) of the same molecule?
**A.** Its pIC50 is less than 4.70.

**Q.** And the pIC50 (UniProt Q8ILK2)?
**A.** The pIC50 was less than 4.70.

**Q.** And the pIC50 (UniProt Q8I2Q0)?
**A.** The pIC50 was less than 4.70.

**Q.** And the pIC50 (UniProt Q9U0I0)?
**A.** The pIC50 was less than 4.70.

**Q.** And the pIC50 (UniProt Q8ILL3)?
**A.** Its pIC50 is less than 4.70.

**Q.** What about the pIC50 (UniProt Q8I442) of the same molecule?
**A.** The pIC50 was 5.04.

**Q.** And the pIC50 (UniProt Q8IIG7)?
**A.** The pIC50 was less than 4.70.

**Q.** What about the pIC50 (UniProt Q8IE43) of the same molecule?
**A.** Its pIC50 is less than 4.70.

**Q.** And the pIC50 (UniProt Q8IM27)?
**A.** Its pIC50 is less than 4.70.

**Q.** And the pIC50 (UniProt O96259)?
**A.** Its pIC50 is less than 4.70.
